Results as given in patent publication US20250177382A1, “NEK7 INHIBITORS” (Halia Therapeutics, Inc., priority 2021, published 2025).
pIC50: −log10 of the molar value.

What was measured:
[1] = tested on: IL-1β release in THP-1 cells; test: IL-1β release assay; format: cell-based; details: Homo sapiens; PMA-differentiated THP-1 cells, LPS + nigericin, cleaved IL-1β by JESS
Experimental: Approximately 1.5 million THP-1 cells were plated in each well of a 6-well TC plate and incubated with 40 nM PMA in RPMI (10% FBS, 1% Penstrep) for 24 hours. The media was then removed and cells were rested in RPMI (10% FBS, 1% Penstrep) for 24 hours after which time the media was removed and cells were pre-treated for 2 hours with various concentrations of compounds of interest (typically serial 3-fold dilution in RPMI+5% FBS, concentrations ranging from 1 μM to 0.5 nM) in RPMI (5% FBS). The media was again removed and cells were incubated with 250 ng/mL LPS and compounds of interest (concentrations as above) in RMPI (5% FBS) for 2 hours. The media was removed for a last time and cells were incubated with 20 μM nigericin and compounds of interest (concentrations as above) in Opti-MEM for 30 minutes. Cell media was then collected and the amount of cleaved IL-1β was determined using a JESS instrument (Protein Simple) and standard protocols. Cleaved Il-1β antibody was obtained from Cell Signaling (catalogue #83186S) and was used at 1:20 dilution in antibody diluent 2. Protein Simple 1× anti-Rabbit HRP secondary antibody was used along with Protein Simple luminol and peroxide for chemiluminescent detection. Primary antibody incubation time was increased from 30 minutes to 60 minutes.
(§1) Representative compounds were tested for inhibitory activity against NEK7 and IL-1β release according to the procedures described above.

[2] = target: T1, full-length recombinant human NEK7 (Homo sapiens, UniProt Q8TDX7); test: NEK7 enzymatic assay; format: biochemical; details: casein substrate, [32P]-ATP, radiometric P81 filter assay
T1 construct: full-length recombinant human NEK7; GST (N); purchased SignalChem N09-10G; host or cells: Sf9 insect cells (baculovirus)
T1 sequence (Q8TDX7 whole entry): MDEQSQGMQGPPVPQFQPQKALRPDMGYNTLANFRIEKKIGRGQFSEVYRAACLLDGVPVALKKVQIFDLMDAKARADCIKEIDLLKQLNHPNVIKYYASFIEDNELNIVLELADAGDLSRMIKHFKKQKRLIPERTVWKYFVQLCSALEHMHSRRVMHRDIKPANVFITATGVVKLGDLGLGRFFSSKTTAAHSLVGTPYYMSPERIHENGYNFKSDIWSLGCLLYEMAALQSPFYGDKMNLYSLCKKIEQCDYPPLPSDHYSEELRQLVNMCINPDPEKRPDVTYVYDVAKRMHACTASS
Experimental: Casein substrate (from bovine milk, hydrolyzed and partially dephosphorylated mixture of α, β, and κ caseins, obtained from Sigma Aldrich, catalogue #C4765, diluted in distilled water to a final concentration of 1 mg/mL, assay concentration 20 μM) and full-length recombinant human NEK7 (expressed by baculovirus in Sf9 insect cells using a N-terminal GST tag, obtained from SignalChem, catalogue #N09-10G, […], assay concentration 70 nM) were mixed in assay buffer (20 mM Hepes pH 7.5, 10 mM MgCl2, 1 mM EGTA, 0.02% Brij35, 0.02 mg/mL BSA, 0.1 mM […], 2 mM DTT, 1% DMSO). Compounds of interest (in DMSO, serial 3-fold dilution from 10 μM to 0.5 nM) or control (1% DMSO) were dispensed into the kinase reaction mixture by Acoustic technology (Echo550; nanoliter range). After incubation at room temperature for 20 minutes, the kinase reaction was initiated by addition of [^32P]-ATP (Specific activity 10 μUCi/μl) and the mixture was incubated at room temperature for 2 hours. The reaction was then stopped by spotting the reaction mixture on strips of phosphocellulose P81 paper. Following washing, the radioactivity of the P81 paper was measured and kinase activity data were expressed as the percent remaining kinase activity in test samples compared to vehicle (dimethyl sulfoxide) reactions. IC50 values and curve fits were obtained using Prism (GraphPad Software).
as §1

SMILES	pIC50 [1]	pIC50 [2]
CN1CCN(Cc2ccc(NC(=O)Nc3ccc(Oc4ccnc5[nH]cc(Cl)c45)cc3F)cc2C(F)(F)F)CC1 [Example I-1, 1-(4-((3-chloro-1H-pyrrolo[2,3-b]pyridin-4-yl)oxy)-2-fluorophenyl)-3-(4-((4-methylpiperazin-1-yl)methyl)-3-(trifluoromethyl)phenyl)urea]	> 7.30	
CN1CCN(Cc2ccc(NC(=O)Nc3ccc(Oc4ccnc5[nH]cc(Cl)c45)cc3F)cc2C(F)(F)F)C2(CC2)C1 [Example I-20, 1-(4-((3-chloro-1H-pyrrolo[2,3-b]pyridin-4-yl)oxy)-2-fluorophenyl)-3-(4-((7-methyl-4,7-diazaspiro[2.5]octan-4-yl)methyl)-3-(trifluoromethyl)phenyl)urea]		< 5.70
Cc1cn(-c2ccc(NC(=O)Nc3ccc(Oc4ccnc5[nH]cc(Cl)c45)cc3F)cc2C(F)(F)F)cn1 [Example I-32, 1-(4-((3-chloro-1H-pyrrolo[2,3-b]pyridin-4-yl)oxy)-2-fluorophenyl)-3-(4-(4-methyl-1H-imidazol-1-yl)-3-(trifluoromethyl)phenyl)urea]		< 5.70
O=C(Nc1ccc(CN2CCC(F)(F)CC2)c(C(F)(F)F)c1)Nc1ccc(Oc2ccnc3[nH]cc(Cl)c23)cc1F [Example I-47, 1-(4-((3-chloro-1H-pyrrolo[2,3-b]pyridin-4-yl)oxy)-2-fluorophenyl)-3-(4-((4,4-difluoropiperidin-1-yl)methyl)-3-(trifluoromethyl)phenyl)urea]		< 5.70
O=C(Nc1ccc(OC2CCN(C3COC3)CC2)c(C(F)(F)F)c1)Nc1ccc(Oc2ccnc3[nH]cc(Cl)c23)cc1F [Example I-48, 1-(4-((3-chloro-1H-pyrrolo[2,3-b]pyridin-4-yl)oxy)-2-fluorophenyl)-3-(4-((1-(oxetan-3-yl)piperidin-4-yl)oxy)-3-(trifluoromethyl)phenyl)urea]		< 5.70
CC(=O)N1CCN(Cc2ccc(NC(=O)Nc3ccc(Oc4ccnc5[nH]cc(Cl)c45)cc3F)cc2C(F)(F)F)CC1 [Example I-49, 1-(4-((4-acetylpiperazin-1-yl)methyl)-3-(trifluoromethyl)phenyl)-3-(4-((3-chloro-1H-pyrrolo[2,3-b]pyridin-4-yl)oxy)-2-fluorophenyl)urea]		< 5.70
CN(C)C1CCN(Cc2ccc(NC(=O)Nc3ccc(Oc4ccnc5[nH]cc(Cl)c45)cc3F)cc2C(F)(F)F)CC1 [Example I-57, 1-(4-((3-chloro-1H-pyrrolo[2,3-b]pyridin-4-yl)oxy)-2-fluorophenyl)-3-(4-((4-(dimethylamino)piperidin-1-yl)methyl)-3-(trifluoromethyl)phenyl)urea]		< 5.70
CN1CCN(Cc2ccc(NC(=O)Nc3ccc(Oc4ccnc5[nH]cc(Cl)c45)cc3F)cc2C(F)(F)F)CC12CC2 [Example I-60, 1-(4-((3-chloro-1H-pyrrolo[2,3-b]pyridin-4-yl)oxy)-2-fluorophenyl)-3-(4-((4-methyl-4,7-diazaspiro[2.5]octan-7-yl)methyl)-3-(trifluoromethyl)phenyl)urea]		< 5.70
CN1CCC(Oc2ccc(NC(=O)Nc3ccc(Oc4ccnc5[nH]cc(Cl)c45)cc3F)cc2C(F)(F)F)C(F)C1 (stereo not shown) [Example I-66, 1-(4-((3-chloro-1H-pyrrolo[2,3-b]pyridin-4-yl)oxy)-2-fluorophenyl)-3-(4-((3-fluoro-1-methylpiperidin-4-yl)oxy)-3-(trifluoromethyl)phenyl)urea]		5.70 to 6.30
CN1CCN(C2CC(F)(F)c3cc(NC(=O)Nc4ccc(Oc5ccnc6[nH]cc(Cl)c56)cc4F)ccc32)CC1 (stereo not shown) [Example I-67, 1-(4-((3-chloro-1H-pyrrolo[2,3-b]pyridin-4-yl)oxy)-2-fluorophenyl)-3-(3,3-difluoro-1-(4-methylpiperazin-1-yl)-2,3-dihydro-1H-inden-5-yl)urea]		< 5.70

The remaining lines, values ahead:

pIC50 [1]	pIC50 [2]	SMILES
	6.30 to 6.70	CN1C[C@@H]2CN(Cc3ccc(NC(=O)Nc4ccc(Oc5ccnc6[nH]cc(Cl)c56)cc4F)cc3C(F)(F)F)C[C@@H]2C1 [Example I-15, 1-(4-((3-chloro-1H-pyrrolo[2,3-b]pyridin-4-yl)oxy)-2-fluorophenyl)-3-(4-(((3aR,6aS)-5-methylhexahydropyrrolo[3,4-c]pyrrol-2(1H)-yl)methyl)-3-(trifluoromethyl)phenyl)urea]
	5.70 to 6.30	CN1CCN(Cc2ccc(NC(=O)Nc3ccc(Oc4ccnc5[nH]cc(Cl)c45)cc3F)cc2C2CC2)CC1 [Example I-26, 1-(4-((3-chloro-1H-pyrrolo[2,3-b]pyridin-4-yl)oxy)-2-fluorophenyl)-3-(3-cyclopropyl-4-((4-methylpiperazin-1-yl)methyl)phenyl)urea]
	5.70 to 6.30	CN1CCN(Cc2ccc(NC(=O)Nc3ccc(Oc4ccnc5[nH]cc(Cl)c45)cc3F)cc2Cl)CC1 [Example I-30, 1-(4-((3-chloro-1H-pyrrolo[2,3-b]pyridin-4-yl)oxy)-2-fluorophenyl)-3-(3-chloro-4-((4-methylpiperazin-1-yl)methyl)phenyl)urea]
	5.70 to 6.30	CN1CCCN(Cc2ccc(NC(=O)Nc3ccc(Oc4ccnc5[nH]cc(Cl)c45)cc3F)cc2C(F)(F)F)CC1 [Example I-33, 1-(4-((3-chloro-1H-pyrrolo[2,3-b]pyridin-4-yl)oxy)-2-fluorophenyl)-3-(4-((4-methyl-1,4-diazepan-1-yl)methyl)-3-(trifluoromethyl)phenyl)urea]
	5.70 to 6.30	CN1CCN(Cc2ncc(NC(=O)Nc3ccc(Oc4ccnc5[nH]cc(Cl)c45)cc3F)cc2C(F)(F)F)CC1 [Example I-46, 1-(4-((3-chloro-1H-pyrrolo[2,3-b]pyridin-4-yl)oxy)-2-fluorophenyl)-3-(6-((4-methylpiperazin-1-yl)methyl)-5-(trifluoromethyl)pyridin-3-yl)urea]
	5.70 to 6.30	O=C(Nc1ccc(CN2CCN(CCF)CC2)c(C(F)(F)F)c1)Nc1ccc(Oc2ccnc3[nH]cc(Cl)c23)cc1F [Example I-50, 1-(4-((3-chloro-1H-pyrrolo[2,3-b]pyridin-4-yl)oxy)-2-fluorophenyl)-3-(4-((4-(2-fluoroethyl)piperazin-1-yl)methyl)-3-(trifluoromethyl)phenyl)urea]
	6.30 to 6.70	O=C(Nc1ccc(CN2CCNCC2)c(C(F)(F)F)c1)Nc1ccc(Oc2ccnc3[nH]cc(Cl)c23)cc1F [Example I-55, 1-(4-((3-chloro-1H-pyrrolo[2,3-b]pyridin-4-yl)oxy)-2-fluorophenyl)-3-(4-(piperazin-1-ylmethyl)-3-(trifluoromethyl)phenyl)urea]
	> 6.70	Cc1c[nH]c2nccc(Oc3ccc(NC(=O)Nc4cnc(OC5CCN(C)CC5)c(C(F)(F)F)c4)c(F)c3)c12 [Example I-61, 1-(2-fluoro-4-((3-methyl-1H-pyrrolo[2,3-b]pyridin-4-yl)oxy)phenyl)-3-(6-((1-methylpiperidin-4-yl)oxy)-5-(trifluoromethyl)pyridin-3-yl)urea]
	> 6.70	CN1CCN(Cc2ccc(NC(=O)Nc3ccc(Oc4ccnc5[nH]cc(Cl)c45)cc3F)cc2OC(F)(F)F)CC1 [Example I-62, 1-(4-((3-chloro-1H-pyrrolo[2,3-b]pyridin-4-yl)oxy)-2-fluorophenyl)-3-(4-((4-methylpiperazin-1-yl)methyl)-3-(trifluoromethoxy)phenyl)urea]
	> 6.70	Cc1c[nH]c2nccc(Oc3ccc(NC(=O)Nc4ccc(OC5CCN(C)CC5)c(C(F)(F)F)c4)c(F)c3)c12 [Example I-63, 1-(2-fluoro-4-((3-methyl-1H-pyrrolo[2,3-b]pyridin-4-yl)oxy)phenyl)-3-(4-((1-methylpiperidin-4-yl)oxy)-3-(trifluoromethyl)phenyl)urea]
	> 6.70	CCN1CCC(Oc2ccc(NC(=O)Nc3ccc(Oc4ccnc5[nH]cc(Cl)c45)cc3F)cc2C(F)(F)F)CC1 [Example I-64, 1-(4-((3-chloro-1H-pyrrolo[2,3-b]pyridin-4-yl)oxy)-2-fluorophenyl)-3-(4-((1-ethylpiperidin-4-yl)oxy)-3-(trifluoromethyl)phenyl)urea]
	5.70 to 6.30	CN1CCN(Cc2cc(NC(=O)Nc3ccc(Oc4ccnc5[nH]cc(Cl)c45)cc3F)cc(C(F)(F)F)c2)CC1 [Example I-65, 1-(4-((3-chloro-1H-pyrrolo[2,3-b]pyridin-4-yl)oxy)-2-fluorophenyl)-3-(3-((4-methylpiperazin-1-yl)methyl)-5-(trifluoromethyl)phenyl)urea]
